The values that follow come from doi:10.1101/2025.06.13.659494v2, “A cell-based degrader assessment platform facilitates discovery of functional NUDT5 PROTACs” (biorxiv, 2026).

The test has as its target T1, NUDT5 (purified) (Homo sapiens, UniProt Q9UKK9).
T1 construct: homodimer
The experiment in a line: enzyme-coupled malachite green assay. As to conditions: […] ADP-ribose, pH […] Mg acetate, […] °C. It is filed as biochemical.

Turning to `COc1cc(-c2nnc(Cn3c(N4CCNCC4)nc4c3c(=O)n(C)c(=O)n4C)o2)ccc1C` [TH10184], the IC50 result was “TH10184 showed comparable biochemical inhibition and thermal shift to TH5427”.
